According to US6943172B2, “Rho-kinase inhibitors” (Bayer Pharmaceuticals Corporation, priority 2002, dated 2005):

melting point: 181 to 186 °C
SMILES: CCc1cc(Nc2ccc(Sc3ccncc3)cc2)nc(N)n1 [Example 42, N-(2-amino-6-ethyl-4-pyrimidinyl)-N-[4-(4-pyridinylsulfanyl)phenyl]amine]
